# Source: patent US7229630B2, “Stabilized formulations of alpha adrenergic receptor antagonists and the uses thereof” (Novalar Pharmaceuticals, Inc., priority 2002, dated 2007)
# Counter-ions that a name gives are not always drawn.
# Columns and labels:
# [1] = test system: human subjects; assay: Reversal of local anesthesia (polocaine with levonordefrin) by LARA vs saline, bilateral injection; assay type: in vivo; details: three subjects, 1.6 ml of 0.05 mg/ml phentolamine mesylate
# Experimental: An injection of the physiological saline vehicle (without phentolamine mesylate) served as the control. […] This was followed by injection of the phentolamine mesylate containing local anesthetic reversal agent (LARA) into one side of the oral cavity, and injection of the saline vehicle (control) solution into the opposite side of the oral cavity. The time to reversal of the local anesthetic effect on both sides was then recorded to determine whether there is a difference between the two sides.
# The local anesthetic used was 2% polocaine (mepivacaine hydrochloride) with levonordefrin (1:20,000=0.05 mg/ml) (levonordefrin injection, USP) (Astra USA, Inc., Westborough, Mass. 01581). Levonordefrin is a sympathomimetic amine with a pharmacological profile similar to that of epinephrine, but with a lower potency.
# Three healthy, male human subjects, age 34–50, volunteered to have local anesthetic injected in the mouth bilaterally under the lip in an easily repeatable location. The exact time of each injection was recorded. The position chosen was above (apical) the prominence of the root of the upper cuspid teeth. This is a common site selected to numb the cuspids, lateral incisors and upper lip. The volume of the local anesthetic injected was 1.7+0.1 ml on each side of the mouth. […]
# [2] = Effect of additives on stability at 60° C. (HPLC); assay type: physicochemical; details: for Rate Constant: zero-order
# Excerpt: The drug is monitored at a detection wavelength of 232 nm.
# The additives in this study are selected from five groups of injectable excipients namely, tonicity modifiers (NaCl and d-mannitol), metal chelators (EDTA), antioxidants (sodium metabisulfite), complexing agents (α-cyclodextrin and niacinamide) and solvents (glycerol and polypropylene glycol). A tonicity modifier is required for adjusting the phentolamine mesylate solution to isotonic. […] Complexing agents were applied in the hope that a possible formation of an inclusion complex (by α-cyclodextrin) or stacking complex (by niacinamide) with phentolamine would modify the rate of hydrolytic degradation of the drug substance. Solvents were added to reduce the dielectric constant of the vehicle and were intended to slow the rate of degradation due to solvent polarity.
# The pH value of the solutions was readjusted to pH 3.5, as required.
# The 25% glycerol (25 g in 100 ml total volume with water) and 25% polypropylene glycol (25 g in 100 ml total volume with water) solutions had their buffer strength adjusted by addition of acetic acid followed by addition of 2 N NaOH for pH adjustment to pH 3.5 followed by addition of the drug to 0.1 mg/ml.
# All samples were placed in 10 ml glass serum vials, stoppered with rubber closures with an inert coating (Daikyo Flurotec by WEST Pharmaceutical), and sealed with flip-top caps after sampling. Vials were placed at 60° C. after the weights were recorded.
# Sampling occurred at the initial time point and on days 2, 7, and 14. Vials were weighed, sampled, sealed, re-weighed, and replaced under the selected storage condition until testing at the subsequent time point. Records indicate no significant weight loss during storage.
# [3] = test system: healthy adult volunteer subjects; assay: Dose range study of reversal of local anesthesia after mandibular nerve block; assay type: in vivo, human
# Excerpt: The objectives of this study were to evaluate the safety and efficacy of a range of doses of phentolamine in reversing local anesthesia after a mandibular nerve block. […] Subjects palpated their lower lip, chin, tongue, and teeth every five minutes for the next five hours after injections.
# [4] = EDTA 0.7 mg/ml, sodium acetate pH 3.5, 60° C., Day 14
# [5] = Glycerol 25% w/v, sodium acetate pH 3.5, 60° C., Day 7
# [6] = NaCl 50 mg/ml, sodium acetate pH 3.5, 60° C., Day 0
# [7] = NaCl 50 mg/ml, sodium acetate pH 3.5, 60° C., Day 2
# [8] = NaCl 50 mg/ml, sodium acetate pH 3.5, 60° C., Day 7
# [9] = NaCl 50 mg/ml, sodium acetate pH 3.5, 60° C., Day 14
# [10] = Niacinamide 50 mg/ml, sodium acetate pH 3.5, 60° C., Day 0
# [11] = Niacinamide 50 mg/ml, sodium acetate pH 3.5, 60° C., Day 2
# [12] = Niacinamide 50 mg/ml, sodium acetate pH 3.5, 60° C., Day 7
# [13] = Niacinamide 50 mg/ml, sodium acetate pH 3.5, 60° C., Day 14
# [14] = No additive, pH 3.5, 60° C., Day 0
# [15] = No additive, pH 3.5, 60° C., Day 2
# [16] = No additive, pH 3.5, 60° C., Day 7
# [17] = No additive, pH 3.5, 60° C., Day 14
# [18] = Sodium metabisulfite 0.5 mg/ml, sodium acetate pH 3.5, 60° C., Day 0
# [19] = Sodium metabisulfite 0.5 mg/ml, sodium acetate pH 3.5, 60° C., Day 7
# [20] = Sodium metabisulfite 0.5 mg/ml, sodium acetate pH 3.5, 60° C., Day 14
# [21] = d-Mannitol 40 mg/ml, sodium acetate pH 3.5, 60° C., Day 0
# [22] = d-Mannitol 40 mg/ml, sodium acetate pH 3.5, 60° C., Day 2
# [23] = d-Mannitol 40 mg/ml, sodium acetate pH 3.5, 60° C., Day 7
# [24] = d-Mannitol 40 mg/ml, sodium acetate pH 3.5, 60° C., Day 14
smiles,measurement,setting,value
"Cc1ccc(N(CC2=NCCN2)c2cccc(O)c2)cc1 [Phentolamine Mesylate, phentolamine mesylate]",side-effects,[1],no side-effects of any kind were noted
same,Phentolamine Purity,"[2]; EDTA 0.7 mg/ml, sodium acetate pH 3.5, 60° C., Day 0",99 % Peak Area
same,Phentolamine Purity,"[2]; EDTA 0.7 mg/ml, sodium acetate pH 3.5, 60° C., Day 2",99 % Peak Area
same,Phentolamine Purity,"[2]; EDTA 0.7 mg/ml, sodium acetate pH 3.5, 60° C., Day 7",99 % Peak Area
same,Phentolamine Concentration,[2]; [4],99 µg/mL
same,Phentolamine Purity,[2]; [4],98 % Peak Area
same,Phentolamine Purity,"[2]; Glycerol 25% w/v, sodium acetate pH 3.5, 60° C., Day 0",98 % Peak Area
same,Phentolamine Purity,"[2]; Glycerol 25% w/v, sodium acetate pH 3.5, 60° C., Day 2",98 % Peak Area
same,Phentolamine Concentration,[2]; [5],120 µg/mL
same,Phentolamine Purity,[2]; [5],93 % Peak Area
same,Phentolamine Purity,"[2]; Glycerol 25% w/v, sodium acetate pH 3.5, 60° C., Day 14",94 % Peak Area
same,Phentolamine Concentration,[2]; [6],94 µg/mL
same,Phentolamine Purity,[2]; [6],94 % Peak Area
same,Phentolamine Concentration,[2]; [7],98 µg/mL
same,Phentolamine Purity,[2]; [7],99 % Peak Area
same,Phentolamine Concentration,[2]; [8],80 µg/mL
same,Phentolamine Purity,[2]; [8],89 % Peak Area
same,Phentolamine Concentration,[2]; [9],74 µg/mL
same,Phentolamine Purity,[2]; [9],85 % Peak Area
same,Phentolamine Concentration,[2]; [10],90 µg/mL
same,Phentolamine Purity,[2]; [10],99 % Peak Area
same,Phentolamine Concentration,[2]; [11],90 µg/mL
same,Phentolamine Purity,[2]; [11],100 % Peak Area
same,Phentolamine Concentration,[2]; [12],78 µg/mL
same,Phentolamine Purity,[2]; [12],93 % Peak Area
same,Phentolamine Concentration,[2]; [13],92 µg/mL
same,Phentolamine Purity,[2]; [13],90 % Peak Area
same,Phentolamine Concentration,[2]; [14],90 µg/mL
same,Phentolamine Purity,[2]; [14],99 % Peak Area
same,Phentolamine Concentration,[2]; [15],92 µg/mL
same,Phentolamine Purity,[2]; [15],98 % Peak Area
same,Phentolamine Concentration,[2]; [16],82 µg/mL
same,Phentolamine Purity,[2]; [16],98 % Peak Area
same,Phentolamine Concentration,[2]; [17],77 µg/mL
same,Phentolamine Purity,[2]; [17],97 % Peak Area
same,Phentolamine Purity,"[2]; Polypropylene glycol 25% w/v, sodium acetate pH 3.5, 60° C., Day 0",93 % Peak Area
same,Phentolamine Purity,"[2]; Polypropylene glycol 25% w/v, sodium acetate pH 3.5, 60° C., Day 2",97 % Peak Area
same,Phentolamine Purity,"[2]; Polypropylene glycol 25% w/v, sodium acetate pH 3.5, 60° C., Day 7",93 % Peak Area
same,Phentolamine Purity,"[2]; Polypropylene glycol 25% w/v, sodium acetate pH 3.5, 60° C., Day 14",90 % Peak Area
same,Phentolamine Concentration,[2]; [18],97 µg/mL
same,Phentolamine Purity,[2]; [18],97 % Peak Area
same,Phentolamine Purity,"[2]; Sodium metabisulfite 0.5 mg/ml, sodium acetate pH 3.5, 60° C., Day 2",99 % Peak Area
same,Phentolamine Concentration,[2]; [19],84 µg/mL
same,Phentolamine Purity,[2]; [19],95 % Peak Area
same,Phentolamine Concentration,[2]; [20],74 µg/mL
same,Phentolamine Purity,[2]; [20],92 % Peak Area
same,Phentolamine Concentration,[2]; [21],98 µg/mL
same,Phentolamine Purity,[2]; [21],96 % Peak Area
same,Phentolamine Concentration,[2]; [22],96 µg/mL
same,Phentolamine Purity,[2]; [22],97 % Peak Area
same,Phentolamine Concentration,[2]; [23],98 µg/mL
same,Phentolamine Purity,[2]; [23],96 % Peak Area
same,Phentolamine Concentration,[2]; [24],91 µg/mL
same,Phentolamine Purity,[2]; [24],97 % Peak Area
same,impact of additive on stability,"[2]; d-Mannitol and disodium EDTA, based on the rate constant, 60° C.",improve stability
same,impact of additive on recovery vs no-additive control,"[2]; sodium metabisulfite, NaCl, glycerol, polypropylene glycol and niacinamide, 60° C.",negative impact on the recovery
same,Rate Constant,"[2]; EDTA 0.7 mg/ml, sodium acetate pH 3.5, 60° C.",0.438 µg/mL/day
same,Rate Constant,"[2]; Glycerol 25% w/v, sodium acetate pH 3.5, 60° C.",0.726 µg/mL/day
same,Rate Constant,"[2]; NaCl 50 mg/ml, sodium acetate pH 3.5, 60° C.",1.663 µg/mL/day
same,Rate Constant,"[2]; Niacinamide 50 mg/ml, sodium acetate pH 3.5, 60° C.",-0.026 µg/mL/day
same,Rate Constant,"[2]; No additive, pH 3.5, 60° C.",1.027 µg/mL/day
same,Rate Constant,"[2]; Polypropylene glycol 25% w/v, sodium acetate pH 3.5, 60° C.",1.019 µg/mL/day
same,Rate Constant,"[2]; Sodium metabisulfite 0.5 mg/ml, sodium acetate pH 3.5, 60° C.",1.903 µg/mL/day
same,Rate Constant,"[2]; d-Mannitol 40 mg/ml, sodium acetate pH 3.5, 60° C.",0.416 µg/mL/day
same,Rate Constant,"[2]; α-Cyclodextrin 50 mg/ml, sodium acetate pH 3.5, 60° C.",0.501 µg/mL/day
same,Phentolamine Purity,"[2]; α-Cyclodextran 50 mg/ml, sodium acetate pH 3.5, 60° C., Day 0",98 % Peak Area
same,Phentolamine Purity,"[2]; α-Cyclodextran 50 mg/ml, sodium acetate pH 3.5, 60° C., Day 2",99 % Peak Area
same,Phentolamine Purity,"[2]; α-Cyclodextran 50 mg/ml, sodium acetate pH 3.5, 60° C., Day 7",98 % Peak Area
same,Phentolamine Purity,"[2]; α-Cyclodextran 50 mg/ml, sodium acetate pH 3.5, 60° C., Day 14",98 % Peak Area
same,Phentolamine Concentration,"[2]; α-Cyclodextrin 50 mg/ml, sodium acetate pH 3.5, 60° C., Day 2",99 µg/mL
same,Phentolamine Concentration,"[2]; α-Cyclodextrin 50 mg/ml, sodium acetate pH 3.5, 60° C., Day 7",96 µg/mL
same,Phentolamine Concentration,"[2]; α-Cyclodextrin 50 mg/ml, sodium acetate pH 3.5, 60° C., Day 14",94 µg/mL
same,impact of additive on stability,"[2]; α-cyclodextrin, based on purity value, 60° C.",negligible
same,electrocardiogram,"[3]; 0.02 mg, 0.06 mg, 0.4 mg in 1.8 ml",no abnormalities
same,Adverse events,"[3]; 0.02 mg, 0.06 mg, 0.4 mg in 1.8 ml, vs placebo",few and no differences were noted between the active and placebo groups
same,duration of anesthesia,"[3]; all doses tested (0.02 mg, 0.06 mg, 0.4 mg in 1.8 ml), 60 minutes after lidocaine 2% with epinephrine 1:100,000, vs saline, each measured tissue",significantly (p<0.05) reduced
